Assays:
[1] = Tolerability in mice; type: in vivo; details: BALB/c mice
[2] = system: CT26 tumors; experiment: Subcutaneous CT26 tumor growth, IR with or without NU-1, immunodeficient host; type: in vivo; details: NSG mice
Protocol: For tumor inoculation, 7-9 week BALB/c mice or NSG mice were subcutaneously injected in the flank with 0.5×10^6 CT26 cells in 100 μL PBS. On Day 9 (tumor average volume ˜30 mm^3), the tumor bearing BALB/c mice were randomly divided into 4 groups of 8, while the NSG mice were randomly divided into 2 groups of 5-6. For NU-1 treatment, 10 mg/kg of NU-1 in 100 μL PBS was injected intraperitoneally once on each of the 2 days before, the day of and 2 days after irradiation. Mouse weight was measured before treatment. Tumor irradiation was conducted on Day 11 using a RadSource RS-2000 X-Ray generator operating at 160 kV and 25 mA at 10 Gy, calibrated by NIST traceable dosimetry. From Day 7 after tumor inoculation, tumors were measured by calipers every 2-3 days and volume calculated using the formula: Tumor volume (mm^3)=length (mm)×width (mm)×width (mm)[…]. On Day 18 after tumor inoculation, tumors from 3 mice under each treatment condition were collected for histology analysis. The rest of the mice were continuously maintained and recorded until at least Day 28 or reaching the humane endpoint for tumor volume. No animals that formed tumors after injection with CT26 cells were excluded from any studies reported here.
CT26 tumors were collected 5 days after treatment (Day 18 after tumor inoculation) and fixed in 10% neutral formalin for 24 h. […]

[3] = system: MCF7-FUCCI cells; experiment: Time-lapse live-cell analysis of cell cycle; type: cell-based, human; details: 0.5 μM for 1 h, then 6 Gy, 6 days
Protocol: MCF7-FUCCI cells were seeded at 3×10^4 per well in 6-well plates, allowed to attach overnight, then treated with 0.5 μM NU-2 control, NU-1 or chrolactomycin for 1 h, followed by 6 Gy. Then, live-cell imaging was conducted using the IncuCyteS3. Phase contrast along with green and red channels were acquired at 20× magnification with scanning every 2 h for 6 days. 16 non-overlapping fields were captured for each well. Representative consecutive images were used to create the movies using Fiji (Schindelin et al., 2012).

[4] = system: MCF7 cells; experiment: Senescence-associated beta-galactosidase (SA-β-Gal) assay; type: cell-based, human; details: 50 nM, 7 days after IR
Protocol: MCF7, Saos-2, or CT26 cells were seeded at 3×10^4 per well in 6-well plates and allowed to attach to plate overnight. […] Then MCF7 and Saos-2 cells were irradiated with 0 or 6 Gy and CT26 cells with 0 or 10 Gy. After IR, MCF7 and Saos-2 cells were continuously cultured for 7 days and CT26 for 5 days, then fixed in 2% PFA and stained with staining buffer (1 mg/ml X-Gal (Golden Bio), 40 mM citric acid/sodium phosphate, 150 mM NaCl, 2 mM MgCl2, 3.3 mM K3[Fe(CN)6], 3.3 mM K4[Fe(CN)6], pH=6) for 16 h at 37° C., then washed with warm PBS three times and imaged in PBS within a week. Images were captured on a Zeiss Axiovert 200M microscope with a 20× Plan-NeoFluar objective and Axiocam digital camera. SA-β-Gal-positive and -negative cells were counted in more than 5 fields, yielding an average percentage indicated on each SA-β-Gal image as mean±SD. Three replicates were performed.

[5] = system: CD8+ T cells; experiment: In vitro T cell priming assay (CFSE dilution); type: cell-based, mouse; details: DCs stimulated by inhibitor treated and irradiated (10 Gy) CT26 cells; 5 days; NU-1 1 μM, MST 2 μM
Protocol: To evaluate effects of TERT on tumor immunogenicity, CT26 cells were seeded at […] per well in 12-well plates, allowed to attach overnight, and then treated with DMSO, NU-1 (1 μM), or MST-312 (2 μM) for 1 h, followed by 0 or 10 Gy. 5 days after IR, the media were removed, cells washed with PBS, and fresh immune cell culture medium added. CT26 cells were then cultured overnight, followed by coculturing with immature BMDCs for 12-16 h at a 1:2 ratio. After coculture, the suspension BMDCs were collected into round bottom FACS tubes, washed with PBS, and stained with Zombie yellow (1:1000, BioLegend) for 10 min at room temperature. […] After PBS washing, cells were resuspended in 300 μL Cell Staining Buffer and analyzed using a BD Fortessa 4-15 HTS Flow cytometer within 2 hours. Data were then analyzed by FlowJo software. […]
Splenocytes isolated from CT26 immunized mice were stained with 0.5 μM carboxyfluorescein succinimidyl ester (CFSE) (Thermo Fisher Scientific, Cat #C34554) for 10 min at room temperature (Quah et al., 2007). […] Cells were analyzed using a BD Fortessa 4-15 HTS flow cytometer and FlowJo software. […]

In the case of C=C1C(=O)[C@](C)(C(=O)OC)[C@H](CCc2cn(Cc3ccc(F)cc3F)nn2)O[C@@H]1C [NU-1], the Tolerability in mice [1] is reported as “well-tolerated”, the Tumor elimination ([2]; IR + NU-1) is reported as “no longer sufficient to eliminate tumors” and the Tumor growth delay ([2]; IR + NU-1 vs IR alone) is reported as “enhanced growth delay”. For the same compound, the “Surviving cells arrested with G1 marker expression and senescent morphology” value [3] was roughly 80%, the “Enhancement of senescence after IR at low concentration” value [4] was “sufficient to enhance senescence after IR” and the “Proliferating CD8+ T cells” value [5] was 33.5%.

Source: patent US12440476B2, “Agents that target telomerase reverse transcriptase (TERT) for treating cancer and sensitizing cancer cells to genotoxic therapy” (Northwestern University, priority 2022, dated 2025)
